Measured values: PubChem BioAssay AID1347042
pEC50: −log10 of the molar value.

The molecules below were run on MutuI BL cells, EBV BHLF1 promoter luciferase, 48 h (assay: EBV lytic cycle activators, dose response, cell-based, MutuI Burkitt lymphoma, luciferase (AID 1347042)).

Row | Structure (SMILES) | pEC50
1 | COc1ccccc1NC(=O)N1CCc2c([nH]c3ccc(Cl)cc23)C1c1ccc(C)cc1 (stereo not given) | 6.77
2 | COC(=O)c1ccccc1NC(=O)N1CCc2c([nH]c3ccc(Cl)cc23)C1c1ccc(OC)cc1 (stereo not given) | 6.80
3 | COC(=O)c1sccc1NC(=O)N1CCc2c([nH]c3ccc(OC)cc23)C1c1ccc(C)cc1 (stereo not given) | 6.24

Molecules with a higher pEC50, results first:

Row | pEC50 | Structure (SMILES)
4 | 6.97 | CCOC(=O)c1ccccc1NC(=O)N1CCc2c([nH]c3ccc(OC)cc23)C1c1ccc(C)cc1 (stereo not given)
5 | 6.95 | COc1ccc(C2c3[nH]c4ccc(Cl)cc4c3CCN2C(=O)Nc2ccc(OC)cc2OC)cc1 (stereo not given)
